According to the supplement of paper PMC10011410:
± gives the standard deviation of the averaged measurements.

Tests used:
U-2 OS [1] = experiment: cell viability (CellTiter-Glo) relative to DMSO (% of control); higher = more viable; details: 24 h
Procedure: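 Cell viability of U-2 OS cells by CellTiter-Glo after 24 h compound treatment at 5, 10 and 20 uM (some at 40 and 80 uM), measured in parallel with the glutathione assay, as percent of DMSO control. Five technical replicate plates, averaged.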

U-2 OS [2] = experiment: AUC of culture confluence over time (live-cell imaging) (AUC (confluence % x time)); higher = more confluent culture (less growth inhibition)
Summary of the method: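 Reported values are areas under curves of confluence against time, recorded by live-cell imaging of U-2 OS cells. Cells in F-12K medium with 10% FBS, seeded at 750 per well in 384-well plates, were treated by pin tool 24 h later, most compounds at 20, 10 and 5 μM with 0.2% DMSO. Imaging at 37 °C took place every 4 h for up to 60 h.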

U-2 OS [3] = experiment: intracellular GSH:GSSG ratio (calculated); higher = more reduced glutathione pool; details: 24 h
Procedure: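 Intracellular glutathione in U-2 OS cells after 24 h compound treatment at 5, 10 and 20 uM (some at 40 and 80 uM). Total glutathione and GSSG were measured with the GSH/GSSG-Glo kit, and the GSH:GSSG ratio was calculated. Mean of five technical replicate plates.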

U-2 OS [4] = experiment: relative cell count vs DMSO (cell painting) (fraction of DMSO control); higher = more cells remaining (less cytotoxic); details: 24 h
Summary of the method: (§1)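 Using 384-well plates holding about 1,500 U-2 OS cells per well, treatment was applied by pin tool for 24 h at 37 °C, generally at six 2-fold concentrations ranging from 20 μM to 625 nM. Staining with MitoTracker, concanavalin A, phalloidin, wheat germ agglutinin, Hoechst and SYTO 14 preceded Opera Phenix imaging and CellProfiler feature extraction against DMSO cells on the same plate. Activity score and cell count are both referenced to DMSO wells, the former as a Mahalanobis distance. Four replicate plates were averaged for every value.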

U-2 OS [5] = experiment: cell painting activity score (Mahalanobis distance from DMSO wells); higher = stronger morphological phenotype; details: 24 h
Summary of the method: as §1

U-2 OS [6] = experiment: total intracellular glutathione (GSH + GSSG) relative to DMSO (% of control); higher = more glutathione; details: 24 h
Procedure: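 Total intracellular glutathione (GSH + GSSG) in U-2 OS cells by GSH/GSSG-Glo after 24 h compound treatment at 5, 10 and 20 uM (some at 40 and 80 uM), as percent of DMSO control. Five technical replicate plates, averaged.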

| Structure (SMILES) | cell viability (U-2 OS [1]; 5 µM) | cell viability (U-2 OS [1]; 10 µM) | cell viability (U-2 OS [1]; 20 µM) | AUC of culture confluence over time (U-2 OS [2]; 5 µM) | AUC of culture confluence over time (U-2 OS [2]; 10 µM) | AUC of culture confluence over time (U-2 OS [2]; 20 µM) | intracellular GSH:GSSG ratio (U-2 OS [3]; 5 µM) | intracellular GSH:GSSG ratio (U-2 OS [3]; 10 µM) | intracellular GSH:GSSG ratio (U-2 OS [3]; 20 µM) | relative cell count (U-2 OS [4]; 0.625 µM) | relative cell count (U-2 OS [4]; 1.25 µM) | relative cell count (U-2 OS [4]; 2.5 µM) | relative cell count (U-2 OS [4]; 5 µM) | relative cell count (U-2 OS [4]; 10 µM) | relative cell count (U-2 OS [4]; 20 µM) | cell painting activity score (U-2 OS [5]; 0.625 µM) | cell painting activity score (U-2 OS [5]; 1.25 µM) | cell painting activity score (U-2 OS [5]; 2.5 µM) | cell painting activity score (U-2 OS [5]; 5 µM) | cell painting activity score (U-2 OS [5]; 10 µM) | cell painting activity score (U-2 OS [5]; 20 µM) | total intracellular glutathione (U-2 OS [6]; 5 µM) | total intracellular glutathione (U-2 OS [6]; 10 µM) | total intracellular glutathione (U-2 OS [6]; 20 µM) | cell viability (U-2 OS [1]; 40 µM) | cell viability (U-2 OS [1]; 80 µM) | intracellular GSH:GSSG ratio (U-2 OS [3]; 40 µM) | intracellular GSH:GSSG ratio (U-2 OS [3]; 80 µM) | total intracellular glutathione (U-2 OS [6]; 40 µM) | total intracellular glutathione (U-2 OS [6]; 80 µM) |
| --- | --- | --- | --- | --- | --- | --- | --- | --- | --- | --- | --- | --- | --- | --- | --- | --- | --- | --- | --- | --- | --- | --- | --- | --- | --- | --- | --- | --- | --- | --- |
| CC(C)C[C@H](NC(=O)[C@H](Cc1ccccc1)NC(=O)c1cnccn1)B(O)O | 6.79 ± 0.82 | 7.67 ± 1.1 | 7.65 ± 1 | 16.9 | 15.6 | 15.1 | 2.45 | 1.97 | 1.1 | 0.186 | 0.172 | 0.149 | 0.129 | 0.131 | 0.125 | 28.4 | 29.8 | 29.3 | 30.7 | 31 | 29.8 | 6.2 ± 0.76 | 6.01 ± 0.4 | 6.63 ± 0.68 | – | – | – | – | – | – |
| CCN1CCN(c2ccc3nsnc3c2[N+](=O)[O-])CC1 | 105 ± 5.4 | 103 ± 4.1 | 106 ± 5.4 | 45 | 46.2 | 42.9 | 16.2 | 18.8 | 13.3 | 0.938 | 0.946 | 0.945 | 0.908 | 0.929 | 0.955 | 3.95 | 4.39 | 4.69 | 6.21 | 4.95 | 5.29 | 100 ± 6.2 | 98.1 ± 3.7 | 91.3 ± 3.3 | – | – | – | – | – | – |
| O=C(CCCCCCC(=O)Nc1ccccc1)NO | 55.2 ± 5.3 | 49.6 ± 3 | 44 ± 2 | 20.3 | 17.9 | 18.6 | 8.04 | 6.39 | 4.82 | 1.01 | 0.936 | 0.838 | 0.776 | 0.491 | 0.438 | 9.26 | 11.1 | 12 | 12 | 17.1 | 14.8 | 60.5 ± 3.5 | 47.6 ± 4.1 | 39.5 ± 5.2 | – | – | – | – | – | – |
| COc1ccc(/C(Cl)=C(\C=O)c2ccc(OC)cc2)cc1 | 101 ± 3.7 | 102 ± 3.2 | 99.8 ± 6.2 | 45.3 | 38.1 | 35.7 | 20.2 | 16.5 | 15.7 | 1 | 0.996 | 1.01 | 0.987 | 0.98 | 0.996 | 6.88 | 4.52 | 5.61 | 10.1 | 11.3 | 12 | 125 ± 6.9 | 125 ± 4.8 | 111 ± 2.4 | 77.1 ± 5 | 69.9 ± 4.5 | 7.85 | 9.31 | 76.7 ± 2.6 | 79.8 ± 4.3 |
